Test results reported in US20060223876A1, “Indoloquinone Tumor Radiation Sensitization” (priority 2005, published 2006).
Read-outs that look alike come from different tables or passages of the source.

What was measured:
[1] = test system: U-87 human glioblastoma cells; assay: Long term study: EO9 and radiation therapy two non-consecutive days a week for 3 weeks, U-87 tumor xenograft growth; assay type: in vivo, athymic NCR NUM mice; details: for % Δ: average rate of increase of tumor volume / T2x: average doubling time of tumor volume: 2 days a week for 3 weeks
Procedure: The effective photon energy was 90 keV.
A protocol was investigated where EO9 and radiation therapy were administered over a longer period of time. In this study, EO9 or radiation therapy was delivered alone or in combination on two non-consecutive days a week for 3 weeks. Six groups received vehicle alone (DMSO), vehicle 30 minutes before radiation therapy (2 days×7.5 Gy), vehicle 30 minutes after radiation therapy (2 days×7.5 Gy), E09 only (2 days×3 mg/kg), EO9 […], and EO9 30 minutes after radiation therapy.

[2] = test system: U-87 human glioblastoma cells
Procedure: U-87 human glioblastoma cells (American Type Culture Collection) were maintained in alpha MEM medium (Sigma) with 10% fetal bovine serum (Atlanta Biologicals). A U-87 cell suspension was injected subcutaneously into the right hind limb (5×10^5 cells in 100 μl PBS) of athymic NCR NUM mice (Taconic Farms) and allowed to grow to a hypoxic volume of ˜550 mm^3 before treatment. Tumors were treated with EO9 and a fractionated radiation therapy schedule to test the hypothesis that EO9 would sensitize tumor cells to radiation therapy. EO9 or vehicle was administered 30 minutes after each radiation therapy fraction on day 1, 2, and 3. The study used 4 treatment groups: vehicle (DMSO), radiation therapy alone (3 days×7.5 Gy), EO9 (3 days×2 mg/kg), and EO9 +radiation therapy (3 days×7.5 Gy×2 mg/kg). EO9 was administered locally by intra-tumoral injection to achieve optimal delivery.
Irradiations were performed on anesthetized mice using an X-ray machine (Pantak) operating at 250 kV, 10 mA, with a 2-mm aluminum filtration. The effective photon energy was 90 keV. Mice were anesthetized with a combination of Ketamine and Acepromazine at a concentration of 75 mg/kg and 0.30 mg/kg respectively. Each mouse was confined in a lead casing with its tumor-bearing leg extended through an opening on the side to allow the tumor to be irradiated locally.
Mixed-effects regression was used to model the base-10 logarithm of tumor volume as a function of time and treatment (tumor growth analyses). The log-transformed outcome was used because tumors of this size grow approximately exponentially, and therefore the logarithm of the tumor volume is approximately linear over time. This approach appropriately handles unbalanced data, such as a different number of measurements for different animals, and takes into account the correlation of each animal's measurements over time. These analyses were carried out with SAS 8.2 (SAS Institute Inc., Cary, N.C., 1999-2001).

[3] = EO9 3 mg/kg 30 minutes after radiation therapy (7.5 Gy)
[4] = EO9 3 mg/kg before radiation therapy (7.5 Gy)
[5] = EO9 only, 3 mg/kg intra-tumoral
[6] = EO9 + radiation therapy (3 days x 7.5 Gy x 2 mg/kg), EO9 30 minutes after each fraction

Cn1c(/C=C/CO)c(CO)c2c1C(=O)C=C(N1CC1)C2=O [EO9, 3-hydroxymethyl-5-aziridinyl-1-methyl-2-(1 H-indole-4,7-dione)-prop-β-en-α-ol]
% Δ: average rate of increase of tumor volume [1, 3]: 8 % daily increase
T2x: average doubling time of tumor volume [1, 3]: 9.1 days
% Δ: average rate of increase of tumor volume [1, 4]: 4 % daily increase
T2x: average doubling time of tumor volume [1, 4]: 17.3 days
effectiveness of dosing schedule ([1]; EO9 administered before radiation therapy): most effective dosing schedule
% Δ: average rate of increase of tumor volume [1, 5]: 12 % daily increase
T2x: average doubling time of tumor volume [1, 5]: 6.1 days
rate of tumor volume growth compared with the other groups ([1]; groups receiving EO9 before or after radiation therapy combined into a single group (FIG. 8)): slowest rate of tumor volume growth
nature of the combination effect of EO9 and radiation therapy ([2]; EO9 + radiation therapy): additive
Estimated Time (Days) for tumors to reach 2000 mm^3 [2, 6]: 20.8 days
T2x: average doubling time of tumor volume [2, 6]: 11.7 days
% Δ (95% CI): average rate of increase of tumor volume ([2]; EO9 + radiation therapy (3 days x 7.5 Gy x 2 mg/kg), EO9 intra-tumoral 30 minutes after each fraction): 6 (4, 8) % daily increase
increase of tumor doubling time vs. control ([2]; EO9 alone, 3 days x 2 mg/kg): 1.4 days
Estimated Time (Days) for tumors to reach 2000 mm^3 ([2]; EO9 alone, 3 days x 2 mg/kg intra-tumoral): 8.6 days
% Δ (95% CI): average rate of increase of tumor volume ([2]; EO9 alone, 3 days x 2 mg/kg intra-tumoral, tumors ~550 mm^3): 16 (14, 19) % daily increase
rate of tumor growth compared with the other groups ([2]; EO9 and radiation therapy): slowest rate of tumor growth
increase of mean tumor doubling time vs. control ([2]; combination of EO9 and radiation therapy): 8.5 days
